Experimental findings from patent US20240116994A1, “Peptides And Use Thereof For Diagnosing And Treating Antiphospholipid Syndrome” (UNIVERSITE DE GENEVE, priority 2021, published 2024) are described below.

Where no end group is shown, it is not given here.

Assay [1] deals with aPL (pool from APS patients). Put plainly: Determination of aPL by ELISA on coated peptides / biotinylated peptides (custom immunoassay). Type of assay: binding, Human. Here is the method:
Determination of aPL by ELISA—MaxiSorp™ 96 well plates (Nunc) or Streptavidin plate (Thermofisher) were coated with 10 μg/ml recombinant domains of β2GP1, peptides or biotinylated-peptide prior to incubation with aPLA. Secondary anti-human antibodies conjugated to IR800CW (Rockland) or HRP were used. Protein- or peptide-bound antibodies were detected and quantified by the Odyssey system (Li-Cor Biosciences) or absorbance in optical densities (OD) was determined at 405 nm (molecular Devices™ Filtermax).
The de Groot's research group has pointed at the importance of hydrophobic character of the plate during coating of R39-R43 epitope. In order to abrogate of the plate-dependent aPL binding, the Ia-1 and Ib-1 peptides as well as the R39-R43 with a biotin at their N-terminal were synthetized and coated a streptavidin plate. In this configuration, the different peptides are flag oriented in the space preventing any interaction with the plate. It was thus observed that the flag-type orientation of R39-R43-biot leads to 8.52×more interaction with aPL while they show 9.63×more binding for Ib-1-biot presenting the same position. […] The surface plasmon resonance (SPR) technique is used to determine the relative avidity of aPL for R39-R43-biot and Ib-1-biot. The interaction between aPL and immobilized R39-R43-biot or Ib-1-biot is monitored by flowing various concentrations of aPL over a R39-R43-biot- or Ib-1-biot-coated chip surface (FIG. 1C). Through SPR experiments, it appears that aPL avidity for Ib-1-biot presents a resonance unit (RU) of 51.49 at 1/1,000 of dilution and a RU of 27.61 at 1/10,000 of dilution while, at the same dilution, it present a RU of 27.36 and a RU of 17.99 with R39-R43-biot, respectively (FIG. 1C). However, at higher concentrations, the peptides seems to show no differences in the interactions with aPL. […] Considering that IgG valency, it was decided to generate a dimeric Ib-1-biot peptide (Ib-1-biot-2x). This new polypeptide carries thus two optimized epitopes which have the opportunity to interact with two Fab fragment present on aPL. […] At higher concentration, i.e dilution of 1/100, the avidity for dimeric peptide is 28×more than for the monomeric (FIG. 1D).
It was performed a peptide substitution scan of Ib-1-biot VSRGGMRKKKKPLTG (SEQ ID NO: 6) carrying the optimized epitope Ib-1-biot and based on an exchange of the underlined amino acid positions with the 20 main amino acids. The resulting peptide microarrays contained 140 different peptides. It was observed that the peptide substitution of the position n° 1, 2, 12 and 15 have significant influences on the ability to interact with aPL from patients 1, 2, 3, 4 and, in particular, form the plasma pool. Indeed, the substitution of the position 1, 12 or 15 by an Arginine (R) or a Lysine (K) increases the avidity of the peptide for all aPL from patients. […] In this context, the enhancement relative to Ib-1.0-biot-2x of identified peptides was evaluated (FIG. 2A). […] However, streptavidin being known to produce unspecific binding, it was used the ratio between aPL and a pool of human plasma as control (B/B0) (FIG. 2B, upper panel). This representation therefore allows to distinguish the real levels of interactions. It was then performed a dilution assay from dilution of 1/100 to 1/1,200,000 and it was observed relevant differences between the different identified peptides. By comparison of area under the curve (AUC), it was possible to detect the most prone-interacting peptide with aPL. Thus, the peptide IIa-8.0-biot-2x obtained the higher AUC (FIG. 2B, bottom panel). To formally quantify the ability of aPL to interact with IIa-8.0-biot-2x, it was monitored by flowing various concentrations of aPL over a IIa-8.0-biot-2x-coated chip surface (FIG. 2C). […] In FIG. 2C, bottom panel, it can be appreciated more precisely the improvement of the quality of interactions. […]
(In general: In an ELISA, binding on a coated surface is turned into a signal by an enzyme label.)

The test system of another assay is aPL produced by mice. Put plainly: ELISA of IgG anti-IIa-8.0-biot-2x in serum of lupus-prone mice. Type of assay: binding. The following applies: serum of apoe−/−.Nba2.Yaa mice on HCD (FIG. 3A). An excerpt:
B6.Nba2. Yaa mice were generated as described.^8 The Apoe^−/− null mutation was introduced in B6.Nba2.Yaa mice by breeding. Eleven-week old Apoe^−/− C57B1/6 and Apoe^−/−Nba2.Yaa mice were subjected to 11 weeks of high cholesterol diet (HCD) (20.1% fat, 1.25% cholesterol, Research Diets, Inc., New Brunswick, NJ), as a model of advanced atherosclerosis. The treatments and atherosclerosis protocols were well-tolerated by the mice, and no adverse events (such as weight loss and signs of systemic toxicity) were reported. At sacrifice, haematological parameters were routinely measured. Animals were euthanized by exsanguination after anesthesia with 4% isoflurane. All breeding and experimental protocols and procedures were reviewed and approved by the Institutional Animal Care and Use Committee of the Geneva University School of Medicine.
Determination of aPL by ELISA—MaxiSorp™ 96 well plates (Nunc) or Streptavidin plate (Thermofisher) were coated with 10 μg/ml recombinant domains of β2GP1, peptides or biotinylated-peptide prior to incubation with aPLA. Secondary anti-human antibodies conjugated to IR800CW (Rockland) or HRP were used. Protein- or peptide-bound antibodies were detected and quantified by the Odyssey system (Li-Cor Biosciences) or absorbance in optical densities (OD) was determined at 405 nm (molecular Devices™ Filtermax). […]

Turning to “IIa-8.0-biot-2x: dimeric biotinylated IIa-8.0 peptide; also used associated with streptavidin magnetic beads (RSRGGMRKRKKPLTGRSRGGMRKRKKPLTG; also: dimeric peptide (two IIa-8.0 copies), biotinylated, site not given here)”, the “ability to interact with aPL, enhancement relative to Ib-1.0-biot-2x” value in assay [1] (ELISA, four dilutions of aPL pool (FIG. 2A)) was “significantly increased with at least three of the four dilutions”. Moreover, in assay [1] (dilution 1/100 to 1/1,200,000, aPL pool / pool of healthy plasma (FIG. 2B)), the “area under the curve (AUC) of dilution assay, B/B0” value was “higher AUC”. In addition, the “interaction with aPL produced by mice” value in the assay with aPL produced by mice is on record as “able to interact also with aPL produced by mice”.
